Measurements as given in patent US20020184656A1, “In vivo assay system for screening and validation of drugs and other substances” (priority 2001, published 2002).

Experiments:
[1] = system: transgenic flies expressing human APC (hAPC/CBD) in developing eyes (using ey-GAL4); test: Drug screening on human APC-induced eye phenotypes in transgenic flies (drug in fly food); format: in vivo, Drosophila; conditions: for Total number of flies with eye phenotypes (in parenthesis: total number of flies of right genotype) / Number of flies with eye phenotypic ranks 1-5 / Number of flies with eye phenotypic ranks 6-10 / Number of flies with eye phenotypic ranks 11-15 / Number of flies with eye phenotypic ranks 16-20: Ey-GAL4, hAPC/CBD
Protocol: Table 1 Distribution of eye phenotypes induced by hAPC/CBD in different genetic backgrounds and in the presence of various compounds and other anti-cancer drugs. Numbers are from a representative experiment. Number in parenthesis in the last column indicates total number of the flies of right genotype.
(§1) In yet another embodiment of the present invention, LD50 is determined for each of the chemicals tested. At concentrations LD50 and below, none of the drugs induce any morphological phenotypes in wildtype flies. Thereafter, the effect of these drugs on transgenic flies expressing human APC in developing eyes (using ey-GAL4) is examined.
Eye phenotypes induced by human APC are arranged in the order of severity from 1 to 20. Human APC in wildtype background induced phenotypes of ranks 1-9. […] WT—wild type eye.
(§2) For drug screening, drugs (at different concentrations) were added to fly food at <50° C. and left over-night for drying. Care was taken to ensure homogenous mixing of the drug in the fly food. Blind-tests were carried out, wherein the vials with or without drugs were coded (with the help of other members of the lab). The crosses were always set-up in triplicates. The method of administering drugs described above is only an example and should not be limited to it as there can be other ways of administering drugs.

Drosophila = test: LD50 determination of the drugs in flies; format: in vivo; conditions: drug in fly food
Protocol: as §1, §2

[2] = 500 micrograms/ml fly food, 59 flies of right genotype
[3] = 200 micrograms/ml fly food, 61 flies of right genotype
[4] = 200 microgram/ml fly food, 121 flies of right genotype
[5] = 50 micrograms/ml fly food, 47 flies of right genotype

## CN1C(C(=O)Nc2ccccn2)=C(O)c2ccccc2S1(=O)=O [Pyroxicam]
[1]; 500 micrograms/ml fly food
  Total number of flies with eye phenotypes (in parenthesis: total number of flies of right genotype): 21(59)
[1]; [2]
  Number of flies with eye phenotypic ranks 1-5: 11
  Number of flies with eye phenotypic ranks 6-10: 7
  Number of flies with eye phenotypic ranks 11-15: 1
  Number of flies with eye phenotypic ranks 16-20: 2

## CC(=O)Oc1ccccc1C(=O)O [aspirin]
[1]; 200 micrograms/ml fly food
  Total number of flies with eye phenotypes (in parenthesis: total number of flies of right genotype): 19(61)
[1]; [3]
  Number of flies with eye phenotypic ranks 1-5: 13
  Number of flies with eye phenotypic ranks 6-10: 4
  Number of flies with eye phenotypic ranks 11-15: 2

## COc1ccc2c(c1)c(CC(=O)O)c(C)n2C(=O)c1ccc(Cl)cc1 [Indomethacin]
[1]; 200 microgram/ml fly food
  Total number of flies with eye phenotypes (in parenthesis: total number of flies of right genotype): 47(121)
[1]; [4]
  Number of flies with eye phenotypic ranks 1-5: 12
  Number of flies with eye phenotypic ranks 6-10: 8
  Number of flies with eye phenotypic ranks 11-15: 16
  Number of flies with eye phenotypic ranks 16-20: 11
[1]; ey-GAL4, extent similar to the enhancement shown by Df(3R)by^62
  Effect on human APC-induced eye phenotypes: enhances human APC-induced eye phenotypes
[1]; ey-GAL4, human APC
  Concentration dependence of the effect on human APC-induced eye phenotypes: concentration dependent
  Concentration of maximum effect on human APC-induced eye phenotypes: 200 μg/ml of fly food
[1]; human APC in wildtype background without drug: ranks 1-9, often resulting eyeless flies
  Ranks of eye phenotypes observed (severity 1 to 20): 1-20
Drosophila
  LD50: 250 μg/ml of fly food

## O=c1[nH]cc(F)c(=O)[nH]1 [5-fluorouracil]
[1]; 50 micrograms/ml fly food
  Total number of flies with eye phenotypes (in parenthesis: total number of flies of right genotype): 14(47)
[1]; [5]
  Number of flies with eye phenotypic ranks 6-10: 4
  Number of flies with eye phenotypic ranks 11-15: 1
[1]; 50 micrograms/ml fly food, 47 flies of right genotype, severity ranks 1 to 20
  Number of flies with eye phenotypic ranks 1-5: 9
